Data taken from patent US20160136193A1, “TREATMENT OF SYMPTOMS ASSOCIATED WITH BACTERIAL VAGINOSIS” (IDH Holding ApS, priority 2003, published 2016).

Tests used:
[1] = system: symptoms associated with bacterial vaginosis; assay: Treatment of a person with recurrent vaginal fishy-smelling secretions (Example 9); assay type: in vivo, human; settings: after two 7-day treatments
Experimental: A person had suffered from discomfort and vaginal secretions of fishy smell recurring after two 7-day treatments with metronidazole. The vaginal pH was approximately 5.3, varying between 5.0 and 5.5.
A lactose suspension (1-3 ml) as prepared in Example 8 was instilled into the vagina twice daily. After approximately 24 hours the pH lowered to 4.7 and the fishy odor disappeared. Continuous application once a day further lowered the pH down to approximately 4.4. The treatment was continued for 4 days.
After 4 days symptoms such as the fishy odor recurred; however, the symptoms disappeared after one day of the treatment described above.

Bacterial Vaginosis = settings: cited from earlier work

Molecule	discomfort and vaginal secretions of fishy smell after treatment [1]	cure rate (Bacterial Vaginosis; 7-day treatment, after 1 month)	side effects (Bacterial Vaginosis; 7-day treatment)	benefits in studies (Bacterial Vaginosis; alternative measures)
Cc1ncc([N+](=O)[O-])n1CCO [Metronidazole]	recurring	80-90%	nausea, abdominal cramps and a metallic taste	
Lactobacillus acidophilus				have not demonstrated benefits
CCC[C@@H]1C[C@@H](C(=O)N[C@@H]([C@H]2O[C@H](SC)[C@H](O)[C@@H](O)[C@H]2O)[C@H](C)Cl)N(C)C1 [Clindamycin]			less, though diarrhea is possible	
